Source: patent US8952024B2, “Herbicidal pyrimidone derivatives” (E I du Pont de Nemours and Company, priority 2009, dated 2015)

Key:
Assay in all cases: Test B pre-/postemergence plant response
Type in all cases: in vivo
[1] = tested on: blackgrass (Alopecurus myosuroides)
How it was run: (§1)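 Pre-em in loam/sand; post-em at 1–4 leaf (2–18 cm) in peat mix. Solvent + surfactant formulation. Greenhouse 13–15 d; visual % control vs untreated, 0–100.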

[2] = tested on: Italian ryegrass (Lolium multiflorum)
How it was run: as §1

corn (Zea mays) = tested on: corn (Zea mays)
How it was run: as §1

kochia (Kochia scoparia) = tested on: kochia (Kochia scoparia)
How it was run: as §1

soybean (Glycine max) = tested on: soybean (Glycine max)
How it was run: as §1

[3] = tested on: ragweed (common ragweed, Ambrosia elatior)
How it was run: as §1

[4] = tested on: velvetleaf (Abutilon theophrasti)
How it was run: as §1

[5] = tested on: Surinam grass (Brachiaria decumbens)
How it was run: as §1

[6] = tested on: giant foxtail (Setaria faberii)
How it was run: as §1

[7] = tested on: woolly cupgrass (Eriochloa villosa)
How it was run: as §1

[8] = tested on: pigweed (Amaranthus retroflexus)
How it was run: as §1

[9] = tested on: johnsongrass (Sorghum halepense)
How it was run: as §1

[10] = tested on: downy bromegrass (Bromus tectorum)
How it was run: as §1

[11] = Postemergence, 31 g ai/ha, 0 to 100 scale (0 no effect, 100 complete control)
[12] = Postemergence, 62 g ai/ha, scale 0 to 100 (0 no effect, 100 complete control)
[13] = Postemergence, 125 g ai/ha, scale 0 (no effect) to 100 (complete control), 13 to 15 days
[14] = Postemergence, 250 g ai/ha, scale 0 to 100 (0 no effect, 100 complete control), 13 to 15 days
[15] = Preemergence, 31 g ai/ha, scale 0 to 100 (0 no effect, 100 complete control)
[16] = Preemergence, 62 g ai/ha, scale 0 to 100 (0 no effect, 100 complete control)
[17] = Preemergence, 125 g ai/ha, scale 0 to 100, 0 no effect, 100 complete control
[18] = Preemergence, 250 g ai/ha, 0 to 100 scale

Structure (SMILES): CCCCn1c(-c2cc(F)cc(F)c2)ncc(C(=O)C2=C(O)C3CCC(C3)C2=O)c1=O (centres unmarked) [Compound 245]
- Plant response rating, Blackgrass [1, 11]: 40
- Plant response rating, Blackgrass [1, 12]: 70
- Plant response rating, Blackgrass [1, 13]: 80
- Plant response rating, Blackgrass [1, 14]: 80
- Plant response rating, Blackgrass [1, 15]: 0
- Plant response rating, Blackgrass [1, 16]: 5
- Plant response rating, Blackgrass [1, 17]: 30
- Blackgrass plant response rating [1, 18]: 45
- Plant response rating, Ryegrass, Italian [2, 11]: 40
- Plant response rating, Ryegrass, Italian [2, 12]: 50
- Plant response rating, Ryegrass, Italian [2, 13]: 70
- Plant response rating, Ryegrass, Italian [2, 14]: 85
- Plant response rating, Ryegrass, Italian [2, 15]: 0
- Plant response rating, Ryegrass, Italian [2, 16]: 0
- Plant response rating, Ryegrass, Italian [2, 17]: 0
- Ryegrass, Italian plant response rating [2, 18]: 40
- Plant response rating, Corn (corn (Zea mays); [11]): 100
- Plant response rating, Corn (corn (Zea mays); [12]): 100
- Plant response rating, Corn (corn (Zea mays); [13]): 100
- Plant response rating, Corn (corn (Zea mays); [14]): 100
- Plant response rating, Corn (corn (Zea mays); [15]): 0
- Plant response rating, Corn (corn (Zea mays); [16]): 5
- Plant response rating, Corn (corn (Zea mays); [17]): 25
- Corn plant response rating (corn (Zea mays); [18]): 65
- Plant response rating, Kochia (kochia (Kochia scoparia); [11]): 85
- Plant response rating, Kochia (kochia (Kochia scoparia); [12]): 100
- Plant response rating, Kochia (kochia (Kochia scoparia); [13]): 100
- Plant response rating, Kochia (kochia (Kochia scoparia); [14]): 100
- Plant response rating, Kochia (kochia (Kochia scoparia); [15]): 0
- Plant response rating, Kochia (kochia (Kochia scoparia); [16]): 45
- Plant response rating, Kochia (kochia (Kochia scoparia); [17]): 98
- Kochia plant response rating (kochia (Kochia scoparia); [18]): 100
- Plant response rating, Soybean (soybean (Glycine max); [11]): 95
- Plant response rating, Soybean (soybean (Glycine max); [12]): 98
- Plant response rating, Soybean (soybean (Glycine max); [13]): 100
- Plant response rating, Soybean (soybean (Glycine max); [14]): 100
- Plant response rating, Soybean (soybean (Glycine max); [15]): 0
- Plant response rating, Soybean (soybean (Glycine max); [16]): 10
- Plant response rating, Soybean (soybean (Glycine max); [17]): 55
- Soybean plant response rating (soybean (Glycine max); [18]): 75
- Plant response rating, Ragweed [3, 11]: 95
- Plant response rating, Ragweed [3, 12]: 98
- Plant response rating, Ragweed [3, 13]: 100
- Plant response rating, Ragweed [3, 14]: 100
- Plant response rating, Ragweed [3, 15]: 75
- Plant response rating, Ragweed [3, 16]: 85
- Plant response rating, Ragweed [3, 17]: 100
- Ragweed plant response rating [3, 18]: 100
- Plant response rating, Velvetleaf [4, 11]: 100
- Plant response rating, Velvetleaf [4, 12]: 100
- Plant response rating, Velvetleaf [4, 13]: 100
- Plant response rating, Velvetleaf [4, 14]: 100
- Plant response rating, Velvetleaf [4, 15]: 95
- Plant response rating, Velvetleaf [4, 16]: 100
- Plant response rating, Velvetleaf [4, 17]: 100
- Velvetleaf plant response rating [4, 18]: 100
- Plant response rating, Surinam Grass [5, 11]: 100
- Plant response rating, Surinam Grass [5, 12]: 100
- Plant response rating, Surinam Grass [5, 13]: 100
- Plant response rating, Surinam Grass [5, 14]: 100
- Plant response rating, Surinam Grass [5, 15]: 95
- Plant response rating, Surinam Grass [5, 16]: 100
- Plant response rating, Surinam Grass [5, 17]: 100
- Surinam Grass plant response rating [5, 18]: 100
- Plant response rating, Foxtail, Giant [6, 11]: 98
- Plant response rating, Foxtail, Giant [6, 12]: 100
- Plant response rating, Foxtail, Giant [6, 13]: 100
- Plant response rating, Foxtail, Giant [6, 14]: 100
- Plant response rating, Foxtail, Giant [6, 15]: 0
- Plant response rating, Foxtail, Giant [6, 16]: 10
- Plant response rating, Foxtail, Giant [6, 17]: 90
- Foxtail, Giant plant response rating [6, 18]: 100
- Plant response rating, Cupgrass, Woolly [7, 11]: 100
- Plant response rating, Cupgrass, Woolly [7, 12]: 100
- Plant response rating, Cupgrass, Woolly [7, 13]: 100
- Plant response rating, Cupgrass, Woolly [7, 14]: 100
- Plant response rating, Cupgrass, Woolly [7, 15]: 50
- Plant response rating, Cupgrass, Woolly [7, 16]: 70
- Plant response rating, Cupgrass, Woolly [7, 17]: 80
- Cupgrass, Woolly plant response rating [7, 18]: 100
- Plant response rating, Pigweed [8, 11]: 80
- Plant response rating, Pigweed [8, 12]: 98
- Plant response rating, Pigweed [8, 13]: 100
- Plant response rating, Pigweed [8, 14]: 100
- Plant response rating, Pigweed [8, 15]: 80
- Plant response rating, Pigweed [8, 16]: 95
- Plant response rating, Pigweed [8, 17]: 100
- Pigweed plant response rating [8, 18]: 100
- Plant response rating, Johnsongrass [9, 11]: 100
- Plant response rating, Johnsongrass [9, 12]: 100
- Plant response rating, Johnsongrass [9, 13]: 100
- Plant response rating, Johnsongrass [9, 14]: 100
- Plant response rating, Johnsongrass [9, 15]: 65
- Plant response rating, Johnsongrass [9, 16]: 75
- Plant response rating, Johnsongrass [9, 17]: 80
- Johnsongrass plant response rating [9, 18]: 100
- Plant response rating, Bromegrass, Downy [10, 11]: 60
- Plant response rating, Bromegrass, Downy [10, 12]: 95
- Plant response rating, Bromegrass, Downy [10, 13]: 95
- Plant response rating, Bromegrass, Downy [10, 14]: 95
- Plant response rating, Bromegrass, Downy [10, 15]: 0
- Plant response rating, Bromegrass, Downy [10, 16]: 0
- Plant response rating, Bromegrass, Downy [10, 17]: 0
- Bromegrass, Downy plant response rating [10, 18]: 15
